Holding throughout (type): cell-based
In data set [1] the test system is HCT15 (human colon adenocarcinoma) cell line. Nature of the data set: In vitro cytotoxic activity (MTT assay) against HCT15 cells. The conditions noted are these: for cytotoxicity against HCT15 compared in words with cisplatin / carboplatin: HCT15 cells, comparison of IC50 values; for IC50: MTT assay, cultures incubated 24 h with compound, ± standard deviation, three independent experiments. The procedure:
(§1) The cis-[Pt(NH3)2(thione)2].2NO3 complexes were evaluated for their in vitro cytotoxic activity against A549 (human lung cancer), MCF-7 (human breast cancer) and HTC15 (human colon cancer) cell lines. The cells were seeded at 4×10^3 cells/well in 100 μL DMEM containing 10% FBS in 96-wells tissue culture plate and incubated for 72 h at 37° C., 5% CO2 in the air and 90% relative humidity in the CO2 incubator. […] The medium of wells was discarded and 100 μL DMEM containing MTT (3-(4,5-Dimethylthiazol-2-yl)-2,5-diphenyltetrazolium Bromide) (5 mg/mL) was added to the wells and incubated in a CO2 incubator at 37° C. in dark for 4 h. After incubation, purple colored formazan (artificial chromogenic dye, a product of the reduction of water insoluble tetrazolium salts e.g., MMT by dehydrogenases and reductases) in the cells is produced and appeared as dark crystals in the bottom of the wells. The resultant crystals were solubilized by adding 100 μL of DMSO in each well. The solution was thoroughly mixed to dissolve the formazan crystals, producing a purple solution. The absorbance of the 96-wells plate was taken at 570 nm with Labsystems Multiskan EX-Enzyme-linked immunosorbent assay (EX-ELISA) reader against a reagent blank. The IC50 values were calculated from three independent experiments by generating an equation of logarithmic trendline of percentage cell viability against concentration compounds in Microsoft excel.
(§2) The IC50 values were obtained from curves between the complexes concentration and viability percentage of the cells, and are listed, in Table 3.
(§3) The experimental results are presented as the micro-mole concentration of 50%/0 cell growth inhibition (IC50) of each drug. The MTT assay was performed in three independent experiments, each in triplicate. The cancer cell lines used are A549 (human lung cancer), MCF-7 (human breast cancer) and HTC15 (human colon cancer) cell lines.
In general terms: Formazan colour is commonly taken as a measure of viable cells.

For data set [2], the system named is MCF7 (human breast carcinoma) cell line. Nature of the data set: In vitro cytotoxic activity (MTT assay) against MCF7 cells. The conditions noted are these: for IC50: MTT assay, cultures incubated 24 h with compound, ± standard deviation, three independent experiments; for antiproliferative potency against MCF7 in words, compared with cisplatin / carboplatin: MCF7 cells, comparison of IC50 values. The procedure: as §1, §2, §3

The subject of data set [3] is A549 (human lung carcinoma) cell line. Nature of the data set: In vitro cytotoxic activity (MTT assay) against A549 cells. The conditions noted are these: for in vitro cytotoxicity against A549 compared in words with cisplatin / carboplatin: A549 cells, comparison of IC50 values; for IC50: MTT assay, cultures incubated 24 h with compound, ± standard deviation, three independent experiments. As to the method: as §1
The MTT assay was performed in three independent experiments, each in triplicate. The cancer cell lines used are A549 (human lung cancer), MCF-7 (human breast cancer) and HTC15 (human colon cancer) cell lines.

From patent US10357473B2, “Method for treating a prolifitive disorder with a cis-diamine platinum complex” (KING FAHD UNIVERSITY OF PETROLEUM AND MINERALS, priority 2017, dated 2019) come the findings set out here.

SMILES strings stand for the structures.

In general, IC50 refers to the concentration needed to halve the response being measured.

On to `CC(C)N1CCN(C(C)C)C1=[S+][Pt-2]([NH3+])([NH3+])[S+]=C1N(C(C)C)CCN1C(C)C.O=[N+]([O-])[O-].O=[N+]([O-])[O-]` [Compound 7, cis-[Pt(NH3)2(iPr2Imt)2].2NO3], for which, in data set [1], the “cytotoxicity against HCT15 compared in words with cisplatin / carboplatin” value is “lower IC50 values” and the half-inhibitory concentration (IC50) was found to be 52 ± 1 µM. In addition, in data set [2], the IC50 came to 78 ± 2 µM. For the same molecule, in data set [3], the “in vitro cytotoxicity against A549 compared in words with cisplatin / carboplatin” value is on record as “comparable to cisplatin” and the IC50 was found to be 50 µM.
As to `CCN1CCCNC1=[S+][Pt-2]([NH3+])([NH3+])[S+]=C1NCCCN1CC.O=[N+]([O-])[O-].O=[N+]([O-])[O-]` [Compound 9, cis-[Pt(NH3)2(EtDiaz)2].2NO3], the results for the IC50 in data set [1], in data set [2] and in data set [3] were 90 ± 2 µM, 103 ± 3 µM and 73 ± 1 µM, respectively. Moreover, the “in vitro cytotoxicity against A549 compared in words with cisplatin / carboplatin” value in data set [3] is reported as “nearly same as that of carboplatin”.
For the molecule `O=[N+]([O-])[O-].O=[N+]([O-])[O-].[NH3+][Pt-2]([NH3+])([S+]=C1NCCCN1)[S+]=C1NCCCN1` [Compound 8, cis-[Pt(NH3)2(Diaz)2].2NO3], the figures for the IC50 in data set [1], in data set [2] and in data set [3] were 76 ± 1 µM, 90 ± 2 µM and 75 ± 2 µM, respectively. In data set [3], the “in vitro cytotoxicity against A549 compared in words with cisplatin / carboplatin” value was “nearly same as that of carboplatin”.
On to `O=[N+]([O-])[O-].O=[N+]([O-])[O-].[NH3+][Pt-2]([NH3+])([S+]=C1NCCCCN1)[S+]=C1NCCCCN1` [Compound 10, cis-[Pt(NH3)2(Diap)2].2NO3], for which, in data set [1], the “cytotoxicity against HCT15 compared in words with cisplatin / carboplatin” value is on record as “lower IC50 values”. Also, the IC50 was determined as 41 ± 1 µM in data set [1], 71 ± 1 µM in data set [2] and 52 µM in data set [3]. In addition, the “in vitro cytotoxicity against A549 compared in words with cisplatin / carboplatin” value in data set [3] is “comparable to cisplatin”.
Consider `CCN1CCN(CC)C1=[S+][Pt-2]([NH3+])([NH3+])[S+]=C1N(CC)CCN1CC.O=[N+]([O-])[O-].O=[N+]([O-])[O-]` [Compound 4, cis-[Pt(NH3)2(Et2Imt)2].2NO3], for which the 50% inhibitory concentration (IC50) in data set [1] stood at 97 ± 3 µM; in data set [2], 97 ± 3 µM; in data set [3], 108 ± 2 µM.
Regarding `CN1CCN(C)C1=[S+][Pt-2]([NH3+])([NH3+])[S+]=C1N(C)CCN1C.O=[N+]([O-])[O-].O=[N+]([O-])[O-]` [Compound 3, cis-[Pt(NH3)2(Me2Imt)2].2NO3], in data set [1], the “cytotoxicity against HCT15 compared in words with cisplatin / carboplatin” value is on record as “nearly same value as carboplatin” and the IC50 was found to be 54 ± 1 µM. Besides, in data set [2], the “antiproliferative potency against MCF7 in words, compared with cisplatin / carboplatin” value is “greater cytotoxic effect than carboplatin” and the IC50 is 58 µM. In addition, the IC50 in data set [3] was 68 ± 1 µM.
Consider `N.N.O=C([O-])C1(C(=O)[O-])CCC1.[Pt+2]` [Carboplatin, reference compound], for which the IC50 in data set [1] turned out to be 53 ± 2 µM; in data set [2] it was 63 ± 2 µM; in data set [3] it was 70 ± 2 µM. For the same molecule, the “antiproliferative potency against MCF7 in words, compared with cisplatin / carboplatin” value in data set [2] is “poor antiproliferative potency”.
For `O=[N+]([O-])[O-].O=[N+]([O-])[O-].[NH3+][Pt-2]([NH3+])([S+]=C1NCCN1)[S+]=C1NCCN1` [Compound 1, cis-[Pt(NH3)2(Imt)2].2NO3], the figures for the IC50 in data set [1], in data set [2] and in data set [3] were 82 ± 1 µM, 101 ± 2 µM and 53 µM, respectively. Also, the “in vitro cytotoxicity against A549 compared in words with cisplatin / carboplatin” value in data set [3] is recorded as “comparable to cisplatin”.
For `N.N.[Cl][Pt][Cl]` [Cisplatin, cis-diaminedichloridoplatinum(II), reference compound], the values for the 50% inhibitory concentration (IC50) in data set [1], in data set [2] and in data set [3] were 32 ± 2 µM, 23 ± 3 µM and 42 ± 2 µM, respectively.
For `CCCN1CCNC1=[S+][Pt-2]([NH3+])([NH3+])[S+]=C1NCCN1CCC.O=[N+]([O-])[O-].O=[N+]([O-])[O-]` [Compound 5, cis-[Pt(NH3)2(PrImt)2].2NO3], in data set [1], the “cytotoxicity against HCT15 compared in words with cisplatin / carboplatin” value was “lower IC50 values” and the IC50 came out at 51 ± 2 µM. Further, in data set [2], the IC50 was 74 ± 2 µM. For the same molecule, in data set [3], the “in vitro cytotoxicity against A549 compared in words with cisplatin / carboplatin” value is “nearly same as that of carboplatin” and the IC50 worked out at 72 ± 2 µM.
Turning to `CN1CCNC1=[S+][Pt-2]([NH3+])([NH3+])[S+]=C1NCCN1C.O=[N+]([O-])[O-].O=[N+]([O-])[O-]` [Compound 2, cis-[Pt(NH3)2(MeImt)2].2NO3], the results for the IC50 in data set [1], in data set [2] and in data set [3] were 75 ± 2 µM, 82 ± 1 µM and 85 ± 1 µM, respectively.
With `CC(C)N1CCNC1=[S+][Pt-2]([NH3+])([NH3+])[S+]=C1NCCN1C(C)C.O=[N+]([O-])[O-].O=[N+]([O-])[O-]` [Compound 6, cis-[Pt(NH3)2(iPrImt)2].2NO3], in data set [1], the “cytotoxicity against HCT15 compared in words with cisplatin / carboplatin” value was “lower IC50 values” and the half-maximal inhibitory concentration (IC50) was 48 ± 1 µM. Also, in data set [2], the half-inhibitory concentration (IC50) is 81 ± 3 µM. Further, in data set [3], the “in vitro cytotoxicity against A549 compared in words with cisplatin / carboplatin” value was “comparable to cisplatin” and the IC50 stood at 55 µM.
